The source of these data is patent US20230322767A1, “ARYL SUBSTITUTED PYRROLO-PYRIDINONES AND THERAPEUTIC USES THEREOF” (Bayer Aktiengesellschaft, priority 2020, published 2023).

The target in one assay is CSNK1D (Homo sapiens (Human), UniProt P48730). The experiment in a line: CSNK1D Assay (ADP-Glo, 1 μM ATP). The note with it: median, read-out: CSNK1D IC50 [mol/l] (median). The assay is classed as biochemical. The method, then:
CSNK1D-inhibitory activity of compounds of the present invention in presence of 1 μM adenosine-tri-phosphate (ATP) was quantified employing the CSNK1 D assay as described in the following paragraphs. In essence, the enzyme activity is measured by quantification of the adenosine-di-phosphate (ADP), which is generated as a co-product of the enzyme reaction, via the “ADP-Glo™ Kinase Assay” kit from the company Promega. This detection system works as follows: In a first step the ATP not consumed in the kinase reaction is quantitatively converted to cAMP employing an adenylate cyclase (“ADP-Glo-reagent”), then the adenylate cyclase is stopped and the ADP generated in the kinase reaction converted to ATP which generates in a luciferase-based reaction a glow-luminescence signal (“Kinase Detection Reagent”).
As substrate for the kinase reaction the biotinylated peptide Btn-Ahx-[…] (C-terminus in amide form) was used which can be purchased e.g. from the company Biosyntan (Berlin-Buch, Germany).
For the assay 50 nl of a 100 fold concentrated solution of the test compound in DMSO was pipetted into a white 1536-well microtiter plate (Greiner Bio-One, Frickenhausen, Germany), 2 μL of a solution of CSNK1D in aqueous assay buffer [50 mM HEPES pH 7.5, 10% (v/v) glycerol, 10 mM MgCl2, 50 mM NaCl, 1 mM dithiothreitol, 0.01% (w/v) bovine serum albumin, 0.01% (v/v) Triton X-100] were added and the mixture was incubated for 15 min at 22° C. to allow pre-binding of the test compounds to the enzyme before the start of the kinase reaction. […] The concentration of CSNK1D was adjusted depending of the activity of the enzyme lot and was chosen appropriate to have the assay in the linear range, a typical concentration is about 0.5 ng/μL. The reaction was stopped by the addition of 2.5 μL of “ADP-Glo-reagent” (1:1.5 fold diluted with water) and the resulting mixture was incubated at 22° C. for 1 h to convert the ATP not consumed in the kinase reaction completely […]. Subsequently 2.5 μL of the “kinase detection reagent” (1.2 fold more concentrated than recommended by the producer) were added, the resulting mixture was incubated at 22° C. for 1 h and then the luminescence measured with a suitable measurement instrument (e.g. Viewlux™ from Perkin-Elmer). The amount of emitted light was taken as a measure for the amount of ADP generated and thereby for the activity of the CSNK1D.
A general note: In ADP-Glo the light output rises with the ADP produced.

The target in a further assay is CSNK1A1 (Homo sapiens (Human), UniProt P48729). The experiment in a line: CSNK1A1 Assay 2 (ADP-Glo, 1 μM ATP). The settings on record: median, read-out: CSNK1A1 Assay 2 IC50 [mol/l] (median). The assay is classed as biochemical. The method, then:
CSNK1A1-inhibitory activity of compounds of the present invention in presence of 1 μM adenosine-tri-phosphate (ATP) was quantified employing the CSNK1A1 assay as described in the following paragraphs. In essence, the enzyme activity is measured by quantification of the adenosine-di-phosphate (ADP), which is generated as a co-product of the enzyme reaction, via the “ADP-Glo™ Kinase Assay” kit from the company Promega. This detection system works as follows: In a first step the ATP not consumed in the kinase reaction is quantitatively converted to cAMP employing an adenylate cyclase (“ADP-Glo-reagent”), then the adenylate cyclase is stopped and the ADP generated in the kinase reaction converted to ATP which generates in a luciferase-based reaction a glow-luminescence signal (“Kinase Detection Reagent”).
As substrate for the kinase reaction the biotinylated peptide biotin-Ahx-KRRRAL-pS-VASLPGL (C-terminus in amide form) was used which can be purchased e.g. from the company Biosyntan (Berlin-Buch, Germany).
For the assay 50 nl of a 100 fold concentrated solution of the test compound in DMSO was pipetted into a white 1536-well microtiter plate (Greiner Bio-One, Frickenhausen, Germany), 2 μL of a solution of CSNK1A1 in aqueous assay buffer [50 mM HEPES pH 7.5, 10% (v/v) glycerol, 10 mM MgCl2, 50 mM NaCl, 1 mM dithiothreitol, 0.01% (w/v) bovine serum albumin, 0.01% (v/v) Triton X-100] were added and the mixture was incubated for 15 min at 22° C. to allow pre-binding of the test compounds to the enzyme before the start of the kinase reaction. […] The concentration of CSNK1A1 was adjusted depending of the activity of the enzyme lot and was chosen appropriate to have the assay in the linear range, a typical concentrations are about 0.0375 ng/μL. The reaction was stopped by the addition of 2.5 μL of “ADP-Glo-reagent” (1:1.5 fold diluted with water) and the resulting mixture was incubated at 22° C. for 1 h to convert the ATP not consumed in the kinase reaction completely […]. Subsequently 2.5 μL of the “kinase detection reagent” (1.2 fold more concentrated than recommended by the producer) were added, the resulting mixture was incubated at 22° C. for 1 h and then the luminescence measured with a suitable measurement instrument (e.g. Viewlux™ from Perkin-Elmer). The amount of emitted light was taken as a measure for the amount of ADP generated and thereby for the activity of the CSNK1A1.

CSNK1D, sequence (P48730 whole entry): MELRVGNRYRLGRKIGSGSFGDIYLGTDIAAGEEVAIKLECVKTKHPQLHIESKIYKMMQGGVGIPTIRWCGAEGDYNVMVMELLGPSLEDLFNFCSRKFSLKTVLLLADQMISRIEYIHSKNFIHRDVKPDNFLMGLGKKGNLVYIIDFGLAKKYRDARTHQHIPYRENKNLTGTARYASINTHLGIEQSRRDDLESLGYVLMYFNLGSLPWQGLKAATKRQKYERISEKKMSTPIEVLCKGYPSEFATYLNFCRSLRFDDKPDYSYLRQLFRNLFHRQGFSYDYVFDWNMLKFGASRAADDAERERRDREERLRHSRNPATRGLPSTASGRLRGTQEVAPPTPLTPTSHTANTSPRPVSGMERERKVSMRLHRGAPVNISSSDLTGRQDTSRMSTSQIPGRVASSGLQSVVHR
CSNK1A1, sequence (P48729 whole entry): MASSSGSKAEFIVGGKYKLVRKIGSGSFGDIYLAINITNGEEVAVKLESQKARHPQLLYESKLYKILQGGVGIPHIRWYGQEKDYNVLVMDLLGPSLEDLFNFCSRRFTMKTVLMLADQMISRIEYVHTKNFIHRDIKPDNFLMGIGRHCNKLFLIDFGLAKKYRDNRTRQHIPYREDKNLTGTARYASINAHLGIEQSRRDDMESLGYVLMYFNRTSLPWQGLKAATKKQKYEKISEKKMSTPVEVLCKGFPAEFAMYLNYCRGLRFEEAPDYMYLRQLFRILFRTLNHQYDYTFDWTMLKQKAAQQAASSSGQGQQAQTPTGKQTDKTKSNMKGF

As to `CC(C(=O)Nc1cc(-c2[nH]c3c(c2-c2ccccc2)C(=O)NCC3(C)C)ccn1)c1ccc(F)cc1` (single isomer, unassigned) [Example 48, N-[4-(7,7-dimethyl-4-oxo-3-phenyl-4,5,6,7-tetrahydro-1H-pyrrolo[3,2-c]pyridin-2-yl)pyridin-2-yl]-2-(4-fluorophenyl)propanamide], the figures for the IC50 at CSNK1D and at CSNK1A1 were 2.9 nM and 1.8 nM, respectively.
The like results for `CC(C(=O)Nc1cc(-c2[nH]c3c(CC(F)(F)F)cn(C)c(=O)c3c2-c2ccccc2)ccn1)c1ccc(F)cc1` (single isomer, unassigned; (+)) [Example 15, (+)-2-(4-fluorophenyl)-N-{4-[5-methyl-4-oxo-3-phenyl-7-(2,2,2-trifluoroethyl)-4,5-dihydro-1H-pyrrolo[3,2-c]pyridin-2-yl]pyridin-2-yl}propanamide] were, in that order, 2.8 nM and 2.3 nM.
The corresponding values for `Cn1cc(CC(F)(F)F)c2[nH]c(-c3ccnc(NC(=O)C(CC(F)F)c4ccc(F)cc4)c3)c(-c3ccccc3)c2c1=O` (single isomer, unassigned; (+)) [Example 20, (+)-4,4-difluoro-2-(4-fluorophenyl)-N-{4-[5-methyl-4-oxo-3-phenyl-7-(2,2,2-trifluoroethyl)-4,5-dihydro-1H-pyrrolo[3,2-c]pyridin-2-yl]pyridin-2-yl}butanamide] are 12 nM and 14 nM.
The corresponding values for `CC(C(=O)Nc1cc(-c2[nH]c3c(CC(F)(F)F)cn(C)c(=O)c3c2-c2ccc(F)cc2)ccn1)c1ccc(F)cc1` (single isomer, unassigned; (+)) [Example 24, (+)-2-(4-fluorophenyl)-N-{4-[3-(4-fluorophenyl)-5-methyl-4-oxo-7-(2,2,2-trifluoroethyl)-4,5-dihydro-1H-pyrrolo[3,2-c]pyridin-2-yl]pyridin-2-yl}propanamide] are 4 nM and 4.5 nM.
On to `Cc1cn(C)c(=O)c2c(-c3ccc(F)cc3)c(-c3ccnc(NC(=O)C(C)c4ccc(F)cc4)c3)[nH]c12` (single isomer, unassigned; (+)) [Example 32, (+)-2-(4-fluorophenyl)-N-{4-[3-(4-fluorophenyl)-5,7-dimethyl-4-oxo-4,5-dihydro-1H-pyrrolo[3,2-c]pyridin-2-yl]pyridin-2-yl}propanamide], for which the results for the IC50 on CSNK1D and on CSNK1A1 were 3.6 nM and 4.4 nM, respectively.
Regarding `Cc1cn(C)c(=O)c2c(-c3ccc(F)cc3)c(-c3ccnc(NC(=O)C(CC(F)F)c4ccc(F)cc4)c3)[nH]c12` (single isomer, unassigned; (+)) [Example 36, (+)-4,4-difluoro-2-(4-fluorophenyl)-N-{4-[3-(4-fluorophenyl)-5,7-dimethyl-4-oxo-4,5-dihydro-1H-pyrrolo[3,2-c]pyridin-2-yl]pyridin-2-yl}butanamide], the IC50 on CSNK1D and on CSNK1A1 was 3.5 nM each time.
As for `CN1C(=O)c2c([nH]c(-c3ccnc(NC(=O)C(CC(F)F)c4ccc(F)cc4)c3)c2-c2ccccc2)CC12CCC2` (single isomer, unassigned; (+)) [Example 51, (+)-4,4-difluoro-2-(4-fluorophenyl)-N-[4-(5′-methyl-4′-oxo-3′-phenyl-1′,4′,5′,7′-tetrahydrospiro-[cyclobutane-1,6′-pyrrolo[3,2-c]pyridin]-2′-yl)pyridin-2-yl]butanamide], the values for the IC50 at CSNK1D and at CSNK1A1 were 2.4 nM and 1.8 nM, respectively.
The corresponding values for `CC(C(=O)Nc1cc(-c2[nH]c3c(c2-c2ccccc2)C(=O)N(C)C2(CCC2)C3)ccn1)c1ccc(F)cc1` (single isomer, unassigned; (+)) [Example 54, (+)-2-(4-fluorophenyl)-N-[4-(5′-methyl-4′-oxo-3′-phenyl-1′,4′,5′,7′-tetrahydrospiro[cyclobutane-1,6′-pyrrolo[3,2-c]pyridin]-2′-yl)pyridin-2-yl]propanamide] are 3.6 nM and 1.6 nM.
The corresponding values for `CC(C(=O)Nc1cc(-c2[nH]c3c(CC(F)(F)F)cn(C)c(=O)c3c2-c2ccccc2)ccn1)c1ccc(F)cc1` (single isomer, unassigned; (-)) [Example 16, (−)-2-(4-fluorophenyl)-N-{4-[5-methyl-4-oxo-3-phenyl-7-(2,2,2-trifluoroethyl)-4,5-dihydro-1H-pyrrolo[3,2-c]pyridin-2-yl]pyridin-2-yl}propanamide] are 4.4 nM and 7.7 nM.
The corresponding values for `Cn1cc(CC(F)(F)F)c2[nH]c(-c3ccnc(NC(=O)C(CC(F)F)c4ccc(F)cc4)c3)c(-c3ccccc3)c2c1=O` (single isomer, unassigned; (-)) [Example 19, (−)-4,4-difluoro-2-(4-fluorophenyl)-N-{4-[5-methyl-4-oxo-3-phenyl-7-(2,2,2-trifluoroethyl)-4,5-dihydro-1H-pyrrolo[3,2-c]pyridin-2-yl]pyridin-2-yl}butanamide] are 14 nM and 22 nM.
Consider `CC(C(=O)Nc1cc(-c2[nH]c3c(CC(F)(F)F)cn(C)c(=O)c3c2-c2ccc(F)cc2)ccn1)c1ccc(F)cc1` (single isomer, unassigned; (-)) [Example 23, (−)-2-(4-fluorophenyl)-N-{4-[3-(4-fluorophenyl)-5-methyl-4-oxo-7-(2,2,2-trifluoroethyl)-4,5-dihydro-1H-pyrrolo[3,2-c]pyridin-2-yl]pyridin-2-yl}propanamide], for which the IC50 on CSNK1D was found to be 37 nM; at CSNK1A1, 85 nM.
The corresponding values for `Cc1cn(C)c(=O)c2c(-c3ccc(F)cc3)c(-c3ccnc(NC(=O)C(C)c4ccc(F)cc4)c3)[nH]c12` (single isomer, unassigned; (-)) [Example 31, (−)-2-(4-fluorophenyl)-N-{4-[3-(4-fluorophenyl)-5,7-dimethyl-4-oxo-4,5-dihydro-1H-pyrrolo[3,2-c]pyridin-2-yl]pyridin-2-yl}propanamide] are 14 nM and 53 nM.
The corresponding values for `Cc1cn(C)c(=O)c2c(-c3ccc(F)cc3)c(-c3ccnc(NC(=O)C(CC(F)F)c4ccc(F)cc4)c3)[nH]c12` (single isomer, unassigned; (-)) [Example 35, (−)-4,4-difluoro-2-(4-fluorophenyl)-N-{4-[3-(4-fluorophenyl)-5,7-dimethyl-4-oxo-4,5-dihydro-1H-pyrrolo[3,2-c]pyridin-2-yl]pyridin-2-yl}butanamide] are 22 nM and 66 nM.
The like results for `CN1C(=O)c2c([nH]c(-c3ccnc(NC(=O)C(CC(F)F)c4ccc(F)cc4)c3)c2-c2ccccc2)CC12CCC2` (single isomer, unassigned; (-)) [Example 50, (−)-4,4-difluoro-2-(4-fluorophenyl)-N-[4-(5′-methyl-4′-oxo-3′-phenyl-1′,4′,5′,7′-tetrahydrospiro-[cyclobutane-1,6′-pyrrolo[3,2-c]pyridin]-2′-yl)pyridin-2-yl]butanamide] were, in that order, 9.8 nM and 12 nM.
